The source of these data is patent US4272630A, “D-Homosteroids” (priority 1979, dated 1981).

≈ marks a conversion by molar mass, not a printed value.

Assay [1] relates to granulomas in female rats. As to the kind of experiment: Felt Pellet Test (granuloma reduction, oral). Format: in vivo. To be noted: Rattus norvegicus, four successive days, female rats (90-110 g), removed on 5th day, read-out: Felt Pellet ED40 (dosage which gave a 40% reduction of the granulation weight). The protocol:
(§1) The tests carried out can be described as follows:
Two felt pellets were implanted under the skin (scapula region) in female rats (90-110 g) under ether narcosis. The D-homosteroids were administered orally on four successive days commencing on the day of the implantation. On the 5th day, the rats were killed, and the granulomas which formed were removed, dried and weighed. The ED40, namely that dosage which gave a 40% reduction of the granulation weight, was determined.

For assay [2], the system named is ear of male mice (oedema). As to the kind of experiment: Mouse Ear Test (oedema inhibition, topical, croton oil). Particulars: dissolved in croton oil, applied 15 seconds under 600 g to right ear of male mice (25-30 g), 4 hours, read-out: Mouse Ear EC50 (concentration which gave a 50% oedema inhibition in comparison with a control group). It counts as in vivo. The protocol:
as §1
The D-homosteroids, dissolved in croton oil, were applied for 15 seconds under a pressure of 600 g to the right ear of male mice weighing 25-30 g. The left ear served as the control. Four hours later, the mice were killed, and tissue was removed with a punch from the same position on treated and untreated ears and weighed. The EC50, namely that concentration which gave a 50% oedema inhibition in comparison with a control group, was determined.

Consider `COC(=O)C1(OC(C)=O)C=CCC2C3CCC4=CC(=O)C=CC4(C)C3(F)C(O)CC21C` [17-acetoxy-9-fluoro-11β-hydroxy-3-oxo-D-homoandrosta-1,4,16-triene-17aβ-carboxylic acid methyl ester], for which, in assay [1], the ED40 was found to be 6 mg/kg. The EC50 in assay [2] worked out at 10 µg/mL (≈ 23.1 µM).

Turning to `COC(=O)C1(OC(C)=O)C=CCC2C3CCC4=CC(=O)C=CC4(C)C3C(O)CC21C` [17aα-acetoxy-11β-hydroxy-3-oxo-D-homoandrosta-1,4,16-triene-17aβ-carboxylic acid methyl ester], the ED40 in assay [1] is 6.4 mg/kg. The EC50 in assay [2] was 30 µg/mL (≈ 72.4 µM).
